Results reported in ChEMBL document CHEMBL3885861, “Open TG-GATES”.

Species on record: Rattus norvegicus
Assay: Open TG-GATES - Regimen: Daily Repeat
Assay type: toxicity, organism-based, Sprague-Dawley
Design: regimen Daily Repeat, gender Male, age 6 weeks
Settings: in vivo, iv, route intravenous injection; for TG / TP / gamma-GTP / AST / BUN / CRE / DBIL / GLC / IP / K / LDH / PL / RALB / TBIL / TC / ALP / ALT: tissue Plasma; for KIDNEY_L / KIDNEY_R / KIDNEY_TOTAL: tissue Kidney; for LIVER: tissue Liver
[1] = 0 mg/kg, […], dose level Control, time 28 day
[2] = 10 mg/kg, 72 h, dose level Low, time 3 day
[3] = 10 mg/kg, 72 h, tissue Blood, dose level Low, time 3 day
[4] = 10 mg/kg, […], dose level Low, time 7 day
[5] = 10 mg/kg, […], dose level Low, time 14 day
[6] = 10 mg/kg, […], dose level Low, time 28 day
[7] = 10 mg/kg, […], tissue Blood, dose level Low, time 7 day
[8] = 10 mg/kg, […], tissue Blood, dose level Low, time 14 day
[9] = 10 mg/kg, […], tissue Blood, dose level Low, time 28 day

GENTAMICIN
TG [1]: 101 mg/dL | TP [1]: 6 g/dL | gamma-GTP [1]: 2.4 IU/L | TERMINAL_BW [2]: 228.4 g | Bas [3]: 0% | Eos [3]: 0.8% | Fbg [3]: 300.8 mg/dL | Ht [3]: 38.3% | Lym [3]: 71.8% | MCHC [3]: 34.8% | MCV [3]: 59.9 fL | Mono [3]: 3.8% | Neu [3]: 22% | PT [3]: 17 s | Plat [3]: 124.4 x10_4/uL | RBC [3]: 640 x10_4/ul | Ret [3]: 5.2% | WBC [3]: 102 x10_2/uL | KIDNEY_L [2]: 1 g | KIDNEY_R [2]: 1 g | KIDNEY_TOTAL [2]: 2 g | LIVER [2]: 10.2 g | AST [2]: 71.8 IU/L | BUN [2]: 18.2 mg/dL | CRE [2]: 0.2 mg/dL | DBIL [2]: 0 mg/dL | GLC [2]: 174.6 mg/dL | IP [2]: 6.6 mg/dL | K [2]: 4.5 meq/L | LDH [2]: 157.2 IU/L | PL [2]: 131.2 mg/dL | RALB [2]: 3 g/dL | TBIL [2]: 0.012 mg/dL | TC [2]: 66.4 mg/dL | TG [2]: 84.6 mg/dL | TP [2]: 5.5 g/dL | gamma-GTP [2]: 1.4 IU/L | TERMINAL_BW [4]: 260.4 g | TERMINAL_BW [5]: 320 g | TERMINAL_BW [6]: 376.9 g | APTT [7]: 22.1 s | Bas [7]: 0% | Eos [7]: 1.4% | Fbg [7]: 290 mg/dL | Hb [7]: 13.7 g/dL | Ht [7]: 40% | Lym [7]: 75.8% | MCHC [7]: 34.4% | MCV [7]: 60.6 fL | Mono [7]: 2.6% | Plat [7]: 122 x10_4/uL | RBC [7]: 660.6 x10_4/ul | Ret [7]: 4.7% | WBC [7]: 106.3 x10_2/uL | APTT [8]: 22.5 s | Bas [8]: 0% | Eos [8]: 1% | Fbg [8]: 298.2 mg/dL | Hb [8]: 14.1 g/dL | Ht [8]: 39.7% | Lym [8]: 75.8% | MCH [8]: 20.6 pg | MCHC [8]: 35.5% | MCV [8]: 58.2 fL | Mono [8]: 2.8% | Neu [8]: 18.8% | PT [8]: 16.5 s | Plat [8]: 124.8 x10_4/uL | RBC [8]: 683 x10_4/ul | Ret [8]: 4.4% | WBC [8]: 118.2 x10_2/uL | APTT [9]: 25.6 s | Bas [9]: 0% | Eos [9]: 1.6% | Fbg [9]: 309.2 mg/dL | Ht [9]: 43.2% | MCHC [9]: 36.1% | MCV [9]: 53.9 fL | Mono [9]: 2% | Neu [9]: 16.4% | PT [9]: 16.5 s | Plat [9]: 112.8 x10_4/uL | RBC [9]: 803.4 x10_4/ul | Ret [9]: 1.9% | WBC [9]: 114.2 x10_2/uL | KIDNEY_L [4]: 1 g | KIDNEY_R [4]: 1 g | KIDNEY_TOTAL [4]: 2.1 g | KIDNEY_L [5]: 1.3 g | KIDNEY_R [5]: 1.3 g | KIDNEY_TOTAL [5]: 2.6 g | KIDNEY_L [6]: 1.4 g | KIDNEY_R [6]: 1.4 g | KIDNEY_TOTAL [6]: 2.7 g | LIVER [5]: 13.6 g | LIVER [6]: 13.7 g | ALP [4]: 1411.6 IU/L | ALT [4]: 40.2 IU/L | AST [4]: 73 IU/L | BUN [4]: 18.2 mg/dL | CRE [4]: 0.2 mg/dL | DBIL [4]: 0 mg/dL | GLC [4]: 188.6 mg/dL | IP [4]: 6.5 mg/dL | K [4]: 4.3 meq/L | LDH [4]: 203.6 IU/L | PL [4]: 146.8 mg/dL | RALB [4]: 3 g/dL | TBIL [4]: 0.008 mg/dL | TC [4]: 70.4 mg/dL | TG [4]: 121.8 mg/dL | TP [4]: 5.5 g/dL | gamma-GTP [4]: 1.2 IU/L | ALP [5]: 1519.6 IU/L | ALT [5]: 37 IU/L | AST [5]: 65.4 IU/L | CRE [5]: 0.2 mg/dL | DBIL [5]: 0 mg/dL | GLC [5]: 186.6 mg/dL | IP [5]: 6.3 mg/dL | K [5]: 4.4 meq/L | LDH [5]: 131.2 IU/L | RALB [5]: 3.1 g/dL | TBIL [5]: 0.006 mg/dL | TC [5]: 61.8 mg/dL | TG [5]: 152 mg/dL | TP [5]: 5.8 g/dL | gamma-GTP [5]: 1.8 IU/L | AST [6]: 66 IU/L | CRE [6]: 0.2 mg/dL | DBIL [6]: 0 mg/dL | GLC [6]: 176 mg/dL | IP [6]: 5.8 mg/dL | K [6]: 4.1 meq/L | LDH [6]: 137.2 IU/L | PL [6]: 132 mg/dL | RALB [6]: 3.1 g/dL | TBIL [6]: 0.004 mg/dL | TC [6]: 67.4 mg/dL | TG [6]: 113.6 mg/dL | TP [6]: 6.1 g/dL
